Among the test systems are DU-145 prostate; RXF 393 renal; UO-31 renal; HCC-2998 colon; UACC-62 melanoma; HOP-62 NSCLC; HT29 colon; T-47D breast; K-562 leukemia; SNB-19 CNS; NCI/ADR-RES ovarian; SK-MEL-2 melanoma.
Holding throughout (assay): DTP human tumour cell line panel, 48 h

SMILES strings stand for the structures.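 48-hour exposure; five concentrations; linearly interpolated endpoints. TGI: concentration producing complete growth inhibition.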

In general, TGI refers to the concentration at which net growth stops. A low value points to greater sensitivity of the cells. For the compound `COC1OC(Cn2cc([N+](=O)[O-])nc2C)C(O)C(O)C1O` (stereo not drawn), the TGI in the assay on DU-145 prostate, with RXF 393 renal, in the assay on UO-31 renal, in the assay with HCC-2998 colon, in the assay on UACC-62 melanoma and in the assay on HOP-62 NSCLC was over 100 µM each time. In addition, the TGI in the assay on HT29 colon, in the assay with T-47D breast, in the assay on K-562 leukemia, with SNB-19 CNS, with NCI/ADR-RES ovarian and with SK-MEL-2 melanoma was over 100 µM each time.

Take `COc1ccc(NC(=O)NNS(=O)(=O)c2ccc(C)cc2)cc1`: the total growth inhibition concentration (TGI) in the assay with DU-145 prostate, in the assay with RXF 393 renal, in the assay on UO-31 renal, in the assay with HCC-2998 colon, in the assay on UACC-62 melanoma and with HOP-62 NSCLC was over 100 µM throughout. In addition, the TGI with HT29 colon, with T-47D breast, in the assay with K-562 leukemia, in the assay with SNB-19 CNS, in the assay on NCI/ADR-RES ovarian and in the assay with SK-MEL-2 melanoma was over 100 µM each time.

In the case of `O=C(O)CCC(NC(=O)c1ccc(Oc2nc3ccccc3nc2-c2ccccc2)cc1)C(=O)O` (stereo not drawn), the total growth inhibition concentration (TGI) in the assay on DU-145 prostate, in the assay with RXF 393 renal, in the assay on UO-31 renal, with HCC-2998 colon, with UACC-62 melanoma and in the assay on HOP-62 NSCLC was over 100 µM in each case. Further, the concentration for total growth inhibition (TGI) with HT29 colon, with T-47D breast, in the assay on K-562 leukemia, in the assay with SNB-19 CNS, with NCI/ADR-RES ovarian and in the assay on SK-MEL-2 melanoma was over 100 µM throughout.

In the case of `COC(=O)CNC(=O)CSc1nnc(COc2ccc(Cl)cc2)n1-c1ccccc1`, the TGI in the assay with DU-145 prostate was 33.6 µM; in the assay with RXF 393 renal, 51.1 µM; in the assay with UO-31 renal, 77.3 µM; in the assay on HCC-2998 colon, 59.1 µM; with UACC-62 melanoma it was over 100 µM; with HOP-62 NSCLC it was over 100 µM. The TGI was over 100 µM with HT29 colon; over 100 µM in the assay on T-47D breast; over 100 µM in the assay with K-562 leukemia; over 100 µM in the assay with SNB-19 CNS; over 100 µM in the assay with NCI/ADR-RES ovarian; 50.7 µM in the assay on SK-MEL-2 melanoma.

With `COC(=O)c1cc2c(cc1C(=O)OC)[C@@]1(C)CCCC(C)(C)C1CC2` (stereo partly drawn), the concentration for total growth inhibition (TGI) in the assay on DU-145 prostate worked out at 33.7 µM; with RXF 393 renal it was 23.2 µM; with UO-31 renal, 35 µM; in the assay with HCC-2998 colon, 34.4 µM; in the assay with UACC-62 melanoma, 32.5 µM; in the assay on HOP-62 NSCLC, 61.6 µM. For the same compound, the total growth inhibition concentration (TGI) in the assay with HT29 colon turned out to be 58.2 µM; with T-47D breast it was 9.58 µM; with K-562 leukemia, 76.1 µM; in the assay on SNB-19 CNS it was 53.7 µM; in the assay with NCI/ADR-RES ovarian, 40.8 µM; in the assay with SK-MEL-2 melanoma it was 46.7 µM.

Regarding `COC(=O)[C@@H]1[C@H]2CC[C@]3(C)[C@@H](OC(C)=O)CC[C@H]3[C@@H]2CC[C@H]1C(C)=O`, the TGI in the assay with DU-145 prostate, with RXF 393 renal, in the assay with UO-31 renal, in the assay with HCC-2998 colon, in the assay on UACC-62 melanoma and with HOP-62 NSCLC was over 100 µM throughout. For the same compound, the total growth inhibition concentration (TGI) in the assay on HT29 colon, with T-47D breast, with K-562 leukemia, in the assay with SNB-19 CNS, with NCI/ADR-RES ovarian and in the assay with SK-MEL-2 melanoma was over 100 µM in each case.

On to `C=CCN1C(=O)CS/C1=N\NC(=O)CSc1nc2ccccc2c(=O)n1CC`, for which the TGI with DU-145 prostate, in the assay on RXF 393 renal, in the assay with UO-31 renal, in the assay with HCC-2998 colon, in the assay on UACC-62 melanoma and in the assay with HOP-62 NSCLC was over 100 µM in each case. Further, the concentration for total growth inhibition (TGI) with HT29 colon, with T-47D breast, in the assay with K-562 leukemia, with SNB-19 CNS, in the assay with NCI/ADR-RES ovarian and with SK-MEL-2 melanoma was over 100 µM each time.

Take `Cn1c(N)c(/C=C/C(=O)Oc2ccccc2)c(=O)n(C)c1=O`: the TGI in the assay on DU-145 prostate is over 100 µM; in the assay on RXF 393 renal, over 100 µM; in the assay with UO-31 renal it was over 100 µM; in the assay with HCC-2998 colon, over 100 µM; in the assay on UACC-62 melanoma, over 100 µM; with HOP-62 NSCLC, 40.9 µM. Further, the concentration for total growth inhibition (TGI) in the assay on HT29 colon, with T-47D breast, in the assay on K-562 leukemia, in the assay with SNB-19 CNS, in the assay with NCI/ADR-RES ovarian and in the assay with SK-MEL-2 melanoma was over 100 µM throughout.

Consider `NC(=O)NC(=O)c1cccc(NC(=O)CCl)c1`, for which the total growth inhibition concentration (TGI) was 5.42 µM in the assay with DU-145 prostate; 4.3 µM in the assay with RXF 393 renal; 0.452 µM in the assay on UO-31 renal; 1.81 µM in the assay with HCC-2998 colon; 2.63 µM in the assay on UACC-62 melanoma; 4.71 µM in the assay with HOP-62 NSCLC. Besides, the TGI with HT29 colon is 7.37 µM; in the assay on T-47D breast, 27.7 µM; in the assay with K-562 leukemia, over 43.4 µM; in the assay on SNB-19 CNS it was over 26.1 µM; in the assay with NCI/ADR-RES ovarian it was 12 µM; in the assay on SK-MEL-2 melanoma, 15.1 µM.

`COC1C(=O)N(SC)C1c1ccccc1Cl` (stereo not drawn): the TGI with DU-145 prostate was over 100 µM; in the assay on RXF 393 renal it was over 100 µM; with UO-31 renal, 33.3 µM; in the assay with HCC-2998 colon it was 28.8 µM; with UACC-62 melanoma, over 100 µM; in the assay with HOP-62 NSCLC, over 100 µM. In addition, the concentration for total growth inhibition (TGI) was 40.7 µM in the assay with HT29 colon; 58.5 µM with T-47D breast; 66.2 µM in the assay on K-562 leukemia; over 100 µM in the assay on SNB-19 CNS; over 100 µM in the assay on NCI/ADR-RES ovarian; over 100 µM in the assay with SK-MEL-2 melanoma.

Consider `C1=Cc2cccc3occ(c23)C=C1`, for which the TGI in the assay with DU-145 prostate was over 100 µM; in the assay on RXF 393 renal, 88.3 µM; in the assay on UO-31 renal, over 100 µM; in the assay with HCC-2998 colon, over 100 µM; in the assay on UACC-62 melanoma, over 100 µM; with HOP-62 NSCLC it was over 100 µM. The TGI is over 100 µM in the assay on HT29 colon; over 100 µM with T-47D breast; 40.1 µM in the assay with K-562 leukemia; over 100 µM with SNB-19 CNS; over 100 µM with NCI/ADR-RES ovarian; over 100 µM in the assay on SK-MEL-2 melanoma.

As for `CCN1C/C(=C\c2ccc(Cl)cc2)c2[nH]c(=O)c(C#N)c(-c3ccc(Cl)cc3)c2C1`, the concentration for total growth inhibition (TGI) in the assay on DU-145 prostate, in the assay on RXF 393 renal, in the assay with HCC-2998 colon, in the assay with UACC-62 melanoma, with HOP-62 NSCLC and in the assay on HT29 colon was over 100 µM each time. Moreover, the TGI with T-47D breast, with K-562 leukemia, in the assay with SNB-19 CNS, in the assay on NCI/ADR-RES ovarian and in the assay on SK-MEL-2 melanoma was over 100 µM throughout.

Source of the values: PubChem BioAssay (NCI).
